Measurements published in patent publication US12404285B2, “KRAS G12D proteolysis targeting chimeras” (PAQ Therapeutics Inc., priority 2022, dated 2025).

Molecular target: T1, KRAS (G12D)-HiBit in AsPc-1-KRAS (G12D)-HiBit-KI cell (Homo sapiens, UniProt P01116, G12D)
T1 construct: host or cells: AsPc-1-KRAS (G12D)-HiBit-KI cells (knock-in line)
Assay: G12D HiBit assay
Assay type: cell-based
Conditions: 24 hours compound treatment, absolute DC50, read-out: Average PHA DC50
Summary of the method: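 Degradation of endogenous HiBiT-tagged KRAS G12D in AsPc-1 knock-in cells read after 24 h compound exposure (0.015-300 nM, 3-fold steps) by Nano-Glo HiBiT lytic luminescence. Signal normalised to DMSO-only cells; absolute DC50 derived by curve fitting.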

T1 sequence (P01116 1-188 isoform P01116-2 G12D): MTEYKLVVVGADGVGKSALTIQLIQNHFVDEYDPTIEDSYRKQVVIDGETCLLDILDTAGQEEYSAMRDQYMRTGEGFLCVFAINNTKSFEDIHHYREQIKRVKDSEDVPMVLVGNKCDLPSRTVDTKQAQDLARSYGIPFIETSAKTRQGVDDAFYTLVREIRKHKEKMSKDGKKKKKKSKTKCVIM

Compound | DC50 [nM]
C#Cc1c(F)ccc2cccc(-c3ncc4c(N5CC6CCC(C5)N6)nc(OC[C@@]56CCCN5[C@H](COC(=O)N5CC7CCC(C5)C7CN5CCC(c7ccc8c(c7)n(C)c(=O)n8C7CCC(=O)NC7=O)CC5)CC6)nc4c3F)c12 (stereo partly drawn) [Compound 103, [(3S,8S)-8-[[4-(3,8-Diazabicyclo[3.2.1]octan-3-yl)-7-(8-ethynyl-7-fluoro-1-naphthyl)-8-fluoro-pyrido[4,3-d]pyrimidin-2-yl]oxymethyl]-1,2,3,5,6,7-hexahydropyrrolizin-3-yl]methyl8-[[4-[1-(2,6-dioxo-3-piperidyl)-3-methyl-2-oxo-benzimidazol-5-yl]-1-piperidyl]methyl]-3-azabicyclo[3.2.1]octane-3-carboxylate] | < 100
C#Cc1c(F)ccc2cccc(-c3ncc4c(N5CC6CCC(C5)N6)nc(OC[C@@]56CCCN5[C@H](COC(=O)N5CC(COC7CCN(c8ccc9c(c8)n(C)c(=O)n9C8CCC(=O)NC8=O)CC7)C5)CC6)nc4c3F)c12 (stereo partly drawn) [Compound 104, [(3S,8S)-8-[[4-(3,8-Diazabicyclo[3.2.1]octan-3-yl)-7-(8-ethynyl-7-fluoro-1-naphthyl)-8-fluoro-pyrido[4,3-d]pyrimidin-2-yl]oxymethyl]-1,2,3,5,6,7-hexahydropyrrolizin-3-yl]methyl 3-[[1-[1-(2,6-dioxo-3-piperidyl)-3-methyl-2-oxo-benzimidazol-5-yl]-4-piperidyl]oxymethyl]azetidine-1-carboxylate] | < 100
C#Cc1c(F)ccc2cccc(-c3ncc4c(N5CC6CCC(C5)N6)nc(OC[C@@]56CCCN5[C@H](COC(=O)N5CCC(CCOCC#Cc7ccc8c(c7)n(C)c(=O)n8C7CCC(=O)NC7=O)CC5)CC6)nc4c3F)c12 (stereo partly drawn) [Compound 105, [(3S,8S)-8-[[4-(3,8-diazabicyclo[3.2.1]octan-3-yl)-7-(8-ethynyl-7-fluoro-1-naphthyl)-8-fluoro-pyrido[4,3-d]pyrimidin-2-yl]oxymethyl]-1,2,3,5,6,7-hexahydropyrrolizin-3-yl]methyl 4-[2-[3-[1-(2,6-dioxo-3-piperidyl)-3-methyl-2-oxo-benzimidazol-5-yl]prop-2-ynoxy]ethyl]piperidine-1-carboxylate] | < 100
C#Cc1c(F)ccc2cccc(-c3ncc4c(N5CC6CCC(C5)N6)nc(OC[C@@]56CCCN5[C@H](COC(=O)N5CCC(OCCCC#Cc7ccc8c(c7)n(C)c(=O)n8C7CCC(=O)NC7=O)CC5)CC6)nc4c3F)c12 (stereo partly drawn) [Compound 114, [(3S,8S)-8-[[4-(3,8-Diazabicyclo[3.2.1]octan-3-yl)-7-(8-ethynyl-7-fluoro-1-naphthyl)-8-fluoro-pyrido[4,3-d]pyrimidin-2-yl]oxymethyl]-1,2,3,5,6,7-hexahydropyrrolizin-3-yl]methyl 4-[5-[1-(2,6-dioxo-3-piperidyl)-3-methyl-2-oxo-benzimidazol-5-yl]pent-4-ynoxy]piperidine-1-carboxylate] | < 100
C#Cc1c(F)ccc2cccc(-c3ncc4c(N5CC6CCC(C5)N6)nc(OC[C@@]56CCCN5[C@H](COC(=O)N5CCC(OCc7ccc8c(c7)n(C)c(=O)n8C7CCC(=O)NC7=O)CC5)CC6)nc4c3F)c12 (stereo partly drawn) [Compound 116, [(3S,8S)-8-[[4-(3,8-Diazabicyclo[3.2.1]octan-3-yl)-7-(8-ethynyl-7-fluoro-1-naphthyl)-8-fluoro-pyrido[4,3-d]pyrimidin-2-yl]oxymethyl]-1,2,3,5,6,7-hexahydropyrrolizin-3-yl]methyl4-[[1-(2,6-dioxo-3-piperidyl)-3-methyl-2-oxo-benzimidazol-5-yl]methoxy]piperidine-1-carboxylate] | ≥ 300
C#Cc1c(F)ccc2cccc(-c3ncc4c(N5CC6CCC(C5)N6)nc(OC[C@@]56CCCN5[C@H](COC(=O)N5CCC(OCCCCc7cccc8c7n(C)c(=O)n8C7CCC(=O)NC7=O)CC5)CC6)nc4c3F)c12 (stereo partly drawn) [Compound 117, [(3S,8S)-8-[[4-(3,8-Diazabicyclo[3.2.1]octan-3-yl)-7-(8-ethynyl-7-fluoro-1-naphthyl)-8-fluoro-pyrido[4,3-d]pyrimidin-2-yl]oxymethyl]-1,2,3,5,6,7-hexahydropyrrolizin-3-yl]methyl4-[4-[1-(2,6-dioxo-3-piperidyl)-3-methyl-2-oxo-benzimidazol-4-yl]butoxy]piperidine-1-carboxylate] | < 100

Results, then the compound that gave them:

DC50 [nM] | Compound
< 100 | C#Cc1c(F)ccc2cccc(-c3ncc4c(N5CC6CCC(C5)N6)nc(OC[C@@]56CCCN5[C@H](COC(=O)N5CCC(CN7CCN(c8ccc9c(c8)n(C)c(=O)n9C8CCC(=O)NC8=O)CC7)CC5)CC6)nc4c3F)c12 (some centres unmarked) [Compound 106]
< 100 | C#Cc1c(F)ccc2cccc(-c3ncc4c(N5CC6CCC(C5)N6)nc(OC[C@@]56CCCN5[C@H](COC(=O)N5CCC(OCCC#Cc7cccc8c7n(C)c(=O)n8C7CCC(=O)NC7=O)CC5)CC6)nc4c3F)c12 (stereo partly drawn) [Compound 107, [(3S,8S)-8-[[4-(3,8-diazabicyclo[3.2.1]octan-3-yl)-7-(8-ethynyl-7-fluoro-1-naphthyl)-8-fluoro-pyrido[4,3-d]pyrimidin-2-yl]oxymethyl]-1,2,3,5,6,7-hexahydropyrrolizin-3-yl]methyl 4-[4-[1-(2,6-dioxo-3-piperidyl)-3-methyl-2-oxo-benzimidazol-4-yl]but-3-ynoxy]piperidine-1-carboxylate]
< 100 | C#Cc1c(F)ccc2cccc(-c3ncc4c(N5CC6CCC(C5)N6)nc(OC[C@@]56CCCN5[C@H](COC(=O)N5CCC(CN(C)C7CCN(c8cccc9c8n(C)c(=O)n9C8CCC(=O)NC8=O)CC7)CC5)CC6)nc4c3F)c12 (stereo partly drawn) [Compound 108, [(3S,8S)-8-[[4-(3,8-Diazabicyclo[3.2.1]octan-3-yl)-7-(8-ethynyl-7-fluoro-1-naphthyl)-8-fluoro-pyrido[4,3-d]pyrimidin-2-yl]oxymethyl]-1,2,3,5,6,7-hexahydropyrrolizin-3-yl]methyl4-[[[1-[1-(2,6-dioxo-3-piperidyl)-3-methyl-2-oxo-benzimidazol-4-yl]-4-piperidyl]-methyl-amino]methyl]piperidine-1-carboxylate]
≥ 300 | C#Cc1c(F)ccc2cccc(-c3ncc4c(N5CC6CCC(C5)N6)nc(OC[C@@]56CCCN5[C@H](COC(=O)NCCCN(C)C5CCN(c7cccc8c7n(C)c(=O)n8C7CCC(=O)NC7=O)CC5)CC6)nc4c3F)c12 (stereo partly drawn) [Compound 109, [(3S,8S)-8-[[4-(3,8-Diazabicyclo[3.2.1]octan-3-yl)-7-(8-ethynyl-7-fluoro-1-naphthyl)-8-fluoro-pyrido[4,3-d]pyrimidin-2-yl]oxymethyl]-1,2,3,5,6,7-hexahydropyrrolizin-3-yl]methylN-[3-[[1-[1-(2,6-dioxo-3-piperidyl)-3-methyl-2-oxo-benzimidazol-4-yl]-4-piperidyl]-methyl-amino]propyl]carbamate]
≥ 300 | C#Cc1c(F)ccc2cccc(-c3ncc4c(N5CC6CCC(C5)N6)nc(OC[C@@]56CCCN5[C@H](COC(=O)NCCCC(=O)N5CCN(c7cccc8c7n(C)c(=O)n8C7CCC(=O)NC7=O)CC5)CC6)nc4c3F)c12 (stereo partly drawn) [Compound 110, ((3S,7aS)-7a-(((4-((1R,5S)-3,8-Diazabicyclo[3.2.1]octan-3-yl)-7-(8-ethynyl-7-fluoronaphthalen-1-yl)-8-fluoropyrido[4,3-d]pyrimidin-2-yl)oxy)methyl)hexahydro-1H-pyrrolizin-3-yl)methyl(4-(4-(1-(2,6-dioxopiperidin-3-yl)-3-methyl-2-oxo-2,3-dihydro-1H-benzo[d]imidazol-4-yl)piperazin-1-yl)-4-oxobutyl)carbamate]
< 100 | C#Cc1c(F)ccc2cccc(-c3ncc4c(N5CC6CCC(C5)N6)nc(OC[C@@]56CCCN5[C@H](COC(=O)N5CCO[C@@H](CN7CCN(c8cccc9c8n(C)c(=O)n9C8CCC(=O)NC8=O)CC7)C5)CC6)nc4c3F)c12 (stereo partly drawn) [Compound 111, [(3S,8S)-8-[[4-(3,8-Diazabicyclo[3.2.1]octan-3-yl)-7-(8-ethynyl-7-fluoro-1-naphthyl)-8-fluoro-pyrido[4,3-d]pyrimidin-2-yl]oxymethyl]-1,2,3,5,6,7-hexahydropyrrolizin-3-yl]methyl (2S)-2-[[4-[1-(2,6-dioxo-3-piperidyl)-3-methyl-2-oxo-benzimidazol-4-yl]piperazin-1-yl]methyl]morpholine-4-carboxylate-2,6-dione]
< 100 | C#Cc1c(F)ccc2cccc(-c3ncc4c(N5CC6CCC(C5)N6)nc(OC[C@@]56CCCN5[C@H](COC(=O)N5CCC(CN7CCN(c8cccc9c8n(C)c(=O)n9C8CCC(=O)NC8=O)CC7)CC5)CC6)nc4c3F)c12 (stereo partly drawn) [Compound 112, [(3S,8S)-8-[[4-(3,8-Diazabicyclo[3.2.1]octan-3-yl)-7-(8-ethynyl-7-fluoro-1-naphthyl)-8-fluoro-pyrido[4,3-d]pyrimidin-2-yl]oxymethyl]-1,2,3,5,6,7-hexahydropyrrolizin-3-yl]methyl 4-[[4-[1-(2,6-dioxo-3-piperidyl)-3-methyl-2-oxo-benzimidazol-4-yl]piperazin-1-yl]methyl]piperidine-1-carboxylate]
100 to 300 | C#Cc1c(F)ccc2cccc(-c3ncc4c(N5CC6CCC(C5)N6)nc(OC[C@@]56CCCN5[C@H](COC(=O)N5CC(CN7CCN(c8cccc9c8n(C)c(=O)n9C8CCC(=O)NC8=O)CC7)C5)CC6)nc4c3F)c12 (stereo partly drawn) [Compound 113, [(3S,8S)-8-[[4-(3,8-Diazabicyclo[3.2.1]octan-3-yl)-7-(8-ethynyl-7-fluoro-1-naphthyl)-8-fluoro-pyrido[4,3-d]pyrimidin-2-yl]oxymethyl]-1,2,3,5,6,7-hexahydropyrrolizin-3-yl]methyl 3-[[4-[1-(2,6-dioxo-3-piperidyl)-3-methyl-2-oxo-benzimidazol-4-yl]piperazin-1-yl]methyl]azetidine-1-carboxylate]
